From patent US5700801A, “Piperazine derivatives, pharmaceutical compositions containing these compounds, their use and processes for preparing them” (Karl Thomae, GmbH, priority 1994, dated 1997)
Counter-ions that a name gives are not always drawn.

Tests used:
human thrombocytes = assay: Inhibition of binding of ^3 H-BIBU 52 to human thrombocytes (table: Fibrinogen binding test); conditions: ^3 H-BIBU 52 (5 nM), human thrombocytes in plasma, ambient temperature, 20 minutes
Protocol: 1. Inhibition of binding of ^3 H-BIBU 52 to human thrombocytes:
A suspension of human thrombocytes in plasma is incubated with ^3 H-BIBU 52 [=(3S,5S)-5-[(4'-amidino-4-biphenylyl)oxymethyl]-3-[(carboxyl)methyl]-2-pyrrolidinone[3-^3 H-4-biphenylyl]] (see DE-A-4,214,245), which replaces the ^125 I fibrinogen ligand known from the literature, and various concentrations of the substance to be tested. The free and bound ligand is separated by centrifuging and quantified by scintillation counting. The inhibition of ^3 H-BIBU 52 binding by the test substance is determined from the measurements obtained.
In order to do this, donor blood is taken from an anticubital vein and anticoagulated with trisodium citrate (final concentration 13 mM). The blood is centrifuged for 10 minutes at 170×g and the supernatant platelet-rich plasma (PRP) is removed. The remaining blood is vigorously centrifuged once more in order to obtain plasma. The PRP is diluted 1:10 with autologous plasma. 750 μl are incubated with 50 μl of physiological saline solution, 100 μl of test substance solution, 50 μl of ^14 C-sucrose (3,700 Bq) and 50 μl of ^3 H-BIBU 52 (final concentration: 5 nM) at ambient temperature for 20 minutes. In order to measure the non-specific binding, 5 μl of BIBU 52 (final concentration: 30 μM) are used instead of the test substance. The samples are centrifuged for 20 seconds at 10,000×g and the supernatant is poured off. 100 μl thereof are counted in order to determine the amount of free ligand. The pellet is dissolved in 500 μl of 0.2N NaOH, 450 μl are mixed with 2 ml of scintillator and 25 μl of 5N HCl and measured. The residual plasma remaining in the pellet is determined from the ^14 C-content and the bound ligand is determined from the ^3 H-measurement. After the non-specific binding has been deducted, the pellet activity is plotted against the concentration of the test substance and the concentration for a 50% inhibition of binding is determined.

[1] = test system: thrombocyte aggregation in platelet-rich plasma taken from healthy volunteers; assay: Antithrombotic activity: inhibition of collagen-induced platelet aggregation (Born and Cross) in platelet-rich plasma; format: cell-based; conditions: Homo sapiens, 10 minutes preincubation at 37° C.
Protocol: 2. Antithrombotic activity
The thrombocyte aggregation is measured using the method of Born and Cross (J. Physiol. 170: 397 (1964)) in platelet-rich plasma taken from healthy volunteers. To inhibit coagulation, the blood is mixed with 3.14% sodium citrate in a volume ratio of 1:10.
Collagen-induced aggregation
The pattern of the decrease in optical density of the platelet suspension is photometrically measured and recorded after the addition of the aggregation-triggering substance. The rate of aggregation is determined from the angle of inclination of the density curve. The point on the curve where there is maximum light transmittance is used to calculate the optical density.
The concentration of collagen used is as small as possible but sufficient to produce an irreversible reaction curve. Standard commercial collagen produced by Hormonchemie of Munich is used.
Before the addition of the collagen the plasma is incubated for 10 minutes with the substance at 37° C.
From the measurements obtained the EC50 is determined, which indicates the concentration giving a 50% change in the optical density in terms of the inhibition of aggregation.

Row | Compound | IC50 (human thrombocytes) [nM] | EC50 [1] [nM]
1 | O=C(O)CC[C@H]1CC[C@H](NC(=O)N2CCN(c3ccncc3)CC2)CC1 [5(6), 3-[4-trans-[4-(4-Pyridyl)-piperazin-1-yl]carbonylamino]cyclohexylpropionicacid hydrochloride] | 0.25 | 0.16
2 | O=C(CC(=O)N1CCN(c2ccncc2)CC1)N[C@H]1CC[C@H](C(=O)O)CC1 [5(7), [4-trans-[4-(4-Pyridyl)-piperazin-1-yl]malonylamino]cyclohexylcarboxylic a cid hydrochloride] | 0.23 | 0.25
3 | O=C(O)CCN1CCC(NC(=O)N2CCN(c3ccncc3)CC2)CC1 [5(8), 3-[4-[4-(4-pyridyl)-piperazin-1-yl]carbonylamino]piperidinopropionic acid dihydrochloride] | 0.41 | 0.6
4 | O=C(O)CN1CCC(NC(=O)N2CCN(c3ccncc3)CC2)CC1 [5(9), [4-[4-(4-Pyridyl)-piperazin-1-yl]carbonylamino]piperidino-acetic acid] | 0.43 | 4.4
5 | COC(=O)[C@H]1CC[C@H](NC(=O)CCN2CCN(c3ccncc3)CC2)CC1 [Example 1, Methyl[4-trans-[3-[4-(4-pyridyl)-piperazin-1-yl]propionyl]-amino]cyclohexane carboxylate] | > 100 | 3.32
6 | O=C(CCN1CCN(c2ccncc2)CC1)N[C@H]1CC[C@H](C(=O)O)CC1 [Example 5, [4-trans-[3-[4-(4-Pyridyl)-piperazin-1-yl]propionyl]amino]-cyclohexane-carboxylic acid dihydrochloride] | 0.21 | 0.26
